Marks after values point to notes of the source that are not given here.
How the values were obtained:
Assay type in all cases: in vivo
Details in all cases: 100 = 100% disease control
[1] = tested on: Puccinia recondita f. sp. tritici; test: Test I: wheat leaf rust on wheat seedlings, sprayed the day before inoculation, visual disease rating
Source text: (§1) General protocol for preparing test suspensions for Tests A-J: The test compounds were first dissolved in acetone in an amount equal to 3% of the final volume and then suspended at the desired concentration (in ppm) in acetone and purified water (50/50 mix) containing 250 ppm of the surfactant Trem® 014 (polyhydric alcohol esters). The resulting test suspensions were then used in tests A-J. Spraying a 200 ppm test suspension to the point of run-off on the test plants was the equivalent of a rate of 500 g/ha. […] The test suspension was sprayed to the point of run-off on wheat seedlings. […] A dash (-) indicates no test results. All results are for 200 ppm except where followed by “*”, which indicates 40 ppm.

Alternaria solani = test: Test D: tomato early blight, sprayed the day before inoculation, visual disease rating
Source text: as §1

Septoria nodorum = test: Test F: wheat glume blotch on wheat seedlings, sprayed the day before inoculation, visual disease rating
Source text: as §1

Botrytis cinerea = test: Test C: tomato Botrytis on tomato seedlings, sprayed the day before inoculation, visual disease rating
Source text: General protocol for preparing test suspensions for Tests A-J: The test compounds were first dissolved in acetone in an amount equal to 3% of the final volume and then suspended at the desired concentration (in ppm) in acetone and purified water (50/50 mix) containing 250 ppm of the surfactant Trem® 014 (polyhydric alcohol esters). The resulting test suspensions were then used in tests A-J. Spraying a 200 ppm test suspension to the point of run-off on the test plants was the equivalent of a rate of 500 g/ha. […] The test suspension was sprayed to the point of run-off on tomato seedlings. […] A dash (-) indicates no test results. All results are for 200 ppm except where followed by “*”, which indicates 40 ppm.

Septoria tritici = test: Test G: wheat leaf blotch on wheat seedlings, sprayed the day before inoculation, visual disease rating
Source text: General protocol for preparing test suspensions for Tests A-J: The test compounds were first dissolved in acetone in an amount equal to 3% of the final volume and then suspended at the desired concentration (in ppm) in acetone and purified water (50/50 mix) containing 250 ppm of the surfactant Trem® 014 (polyhydric alcohol esters). The resulting test suspensions were then used in tests A-J. Spraying a 200 ppm test suspension to the point of run-off on the test plants was the equivalent of a rate of 500 g/ha. […] The test suspension was sprayed to the point of run-off on wheat seedlings. The following day the seedlings were inoculated with a spore suspension of Septoria tritici (the causal agent of wheat leaf blotch) and incubated in saturated atmosphere at 24° C. for 48 h, and then moved to a growth chamber at 20° C. for 19 days, after which time visual disease ratings were made. […] A dash (-) indicates no test results. All results are for 200 ppm except where followed by “*”, which indicates 40 ppm.

[2] = tested on: Erysiphe graminis f. sp. tritici; test: Test J: wheat powdery mildew on wheat seedlings, sprayed the day before inoculation, visual disease rating
Source text: as §1

[3] = 200 ppm, 0 = no control relative to controls
[4] = 40 ppm (marked *), 0 = no control

| Compound | Test I disease control rating [1, 3] [%] | Test D disease control rating (Alternaria solani; [3]) [%] | Test F disease control rating (Septoria nodorum; [3]) [%] | Test C disease control rating (Botrytis cinerea; [3]) [%] | Test G disease control rating (Septoria tritici; [3]) [%] | Test J disease control rating [2, 3] [%] | Test I disease control rating ([1]; 200 ppm, 0 = no control) [%] | Test D disease control rating (Alternaria solani; 200 ppm, 0 = no control) [%] | Test F disease control rating (Septoria nodorum; 200 ppm, 0 = no control) [%] | Test C disease control rating (Botrytis cinerea; 200 ppm, 0 = no control) [%] | Test G disease control rating (Septoria tritici; 200 ppm, 0 = no control) [%] | Test J disease control rating ([2]; 200 ppm, 0 = no control) [%] | further results |
| --- | --- | --- | --- | --- | --- | --- | --- | --- | --- | --- | --- | --- | --- |
| Cc1nn(C)c(-c2c(F)cccc2Cl)c1-c1ccc(Cl)cc1 [compound 61] | 92 | 0 | 0 | 40 | 60 | 99 | – | – | – | – | – | – | – |
| Cc1ccc(-n2c(Cl)nc(Cl)c2-c2c(F)ccc(F)c2F)cc1 [compound 130] | 99 | 100 | 0 | 98 | 85 | 96 | – | – | – | – | – | – | – |
| COc1cc(F)c(-c2c(C)ncn2-c2ccc(Cl)c(F)c2)c(F)c1 [compound 46] | – | – | – | – | – | – | – | – | – | – | – | – | Test I disease control rating ([1]; 40 ppm (marked *)): 26* %; Test D disease control rating (Alternaria solani; 40 ppm (marked *)): 97* %; Test F disease control rating (Septoria nodorum; 40 ppm (marked *)): 0* %; Test C disease control rating (Botrytis cinerea; 40 ppm (marked *)): 86* %; Test G disease control rating (Septoria tritici; 40 ppm (marked *)): 83* %; Test J disease control rating ([2]; 40 ppm (marked *)): 78* % |
| Cc1nn(C)c(-c2c(F)cc(F)cc2F)c1-c1ccc(Cl)cc1 [compound 69] | 0 | 99 | 0 | 74 | 25 | 97 | – | – | – | – | – | – | – |
| Fc1ccccc1-n1c(Br)nc(Cl)c1-c1c(F)cccc1F [compound 58] | 99 | 100 | 51 | 98 | 79 | 100 | – | – | – | – | – | – | – |
| Fc1cccc(F)c1-c1c(Cl)nc(Br)n1-c1ccc(Br)cc1 [compound 66] | 99 | 100 | 99 | 99 | 94 | 99 | – | – | – | – | – | – | – |
| Fc1ccc(-n2c(Cl)nc(Cl)c2-c2c(F)cccc2Cl)cc1 [compound 228] | – | – | – | – | – | – | 94 | 99 | 0 | 96 | 98 | 99 | – |
| Cc1nc(Cl)c(-c2c(F)cccc2F)n1Cc1ccccc1 [compound 118] | 99 | 100 | 60 | 99 | 94 | 100 | – | – | – | – | – | – | – |
| Cc1nc(Cl)c(-c2c(F)cccc2Cl)n1-c1ccc(Cl)cc1 [compound 53] | 100 | 100 | 0 | 89 | 95 | 99 | – | – | – | – | – | – | – |
| Cc1nc(Cl)c(-c2c(F)cccc2F)n1Cc1ccc(Cl)cc1 [compound 128] | 97 | 96 | 96 | 97 | 93 | 100 | – | – | – | – | – | – | – |
| Fc1ccc(SCCl)c(F)c1-c1c(Cl)ncn1-c1ccc(Cl)cc1 [compound 232] | – | – | – | – | – | – | 9 | 0 | 0 | 0 | 95 | 0 | – |
| COc1cc(F)c(-c2c(Cl)nc(C)n2-c2ccc(F)cc2)c(F)c1 [compound 158] | – | – | – | – | – | – | 100 | 100 | 96 | 99 | 97 | 100 | – |
| CN(C)c1ncn(Cc2ccc(Cl)cc2)c1-c1c(F)cccc1F [compound 99] | 91 | 0 | 0 | 0 | 25 | 0 | – | – | – | – | – | – | – |
| COc1cc(F)c(-n2c(Cl)nc(Br)c2-c2ccc(Cl)cc2)c(F)c1 [compound 214] | – | – | – | – | – | – | – | – | – | – | – | – | Test I disease control rating [1, 4]: 97* %; Test D disease control rating (Alternaria solani; [4]): 99* %; Test F disease control rating (Septoria nodorum; [4]): 97* %; Test C disease control rating (Botrytis cinerea; [4]): 100* %; Test G disease control rating (Septoria tritici; [4]): 94* %; Test J disease control rating [2, 4]: 98* % |
| Cc1ccc(-n2cnc(Cl)c2-c2c(F)cc(F)cc2F)cc1 [compound 139] | 98 | 100 | 0 | 99 | 75 | 98 | – | – | – | – | – | – | – |
| COc1cc(F)c(-c2c(Cl)nc(C)n2-c2ccc(C)cc2)c(F)c1 [compound 159] | – | – | – | – | – | – | 100 | 100 | 99 | 99 | 97 | 100 | – |
| Cc1nc(Cl)c(-c2c(F)ccc(F)c2Cl)n1-c1ccc(Cl)c(F)c1 [compound 237] | – | – | – | – | – | – | 100 | 100 | 100 | 100 | 98 | 100 | – |
| Cc1nc(Cl)n(-c2ccc(Cl)c(F)c2)c1-c1ccccc1F [compound 260] | – | – | – | – | – | – | 94 | 95 | 0 | 100 | 92 | 99 | – |
| Fc1ccc(F)c(-c2c(Cl)nc(Br)n2-c2ccc(Cl)cc2)c1Cl [compound 76] | 99 | 99 | 60 | 37 | 97 | 100 | – | – | – | – | – | – | – |
| Fc1cc(-n2c(Cl)nc(Cl)c2-c2c(F)ccc(F)c2Cl)ccc1Cl [compound 220] | – | – | – | – | – | – | 99 | 99 | 0 | 98 | 97 | 100 | – |
| COc1cc(F)c(-c2c(Cl)nc(I)n2-c2ccc(Cl)c(F)c2)c(F)c1 [compound 241] | – | – | – | – | – | – | 96 | 100 | 100 | 100 | 96 | 93 | – |

Source: US20110045101A1, “FUNGICIDAL SUBSTITUTED AZOLES” (E.I. Du Pont De Nemours and Company, priority 2009, published 2011)
